This note sets out measurements from patent US8058476B2, “HCI polymorphs of 3-((2-(dimethylamino)methyl(cyclohex-1-yl)) phenol” (priority 2005, dated 2011).

The conditions of series [1]: for sequence of stability at room temperature: conditions for avoiding the formation of solvates, from Examples 8.1 to 8.4; for crystalline form found by Raman spectrum: Example 8.4: forms IV and II together in ethyl acetate.
A short description of series [2]: Stability in air / chemical stability (description). The settings on record: for stability in air: normal conditions / ambient temperature.
The nature of series [3]: Absorption of water by dynamic vapour sorption (DVS). The settings on record: 25° C.; for water content of the sample if the relative air humidity is reduced to 0%: 0% relative air humidity; for water content of the sample if the relative air humidity is reduced to 0% / water content at 50% relative air humidity at the end of the measuring cycle / relative air humidity above which the crystalline form absorbs water very quickly: hydrochloride. Format: physicochemical. Here is the method: The absorption of water is ascertained by dynamic vapour sorption (DVS) with a DVS-1 instrument manufactured by Surface Measurement Systems Ltd. The sample is placed in a platinum crucible at the pivot of a microbalance. The sample is then initially equilibrated at 50% relative air humidity and then subjected to a predefined measuring program. The temperature was 25° C. The change in weight of the sample is determined.

Series [4] is described as follows: Humid storage of the crystalline forms II and III at 25° C. and 60% relative air humidity. The series is classed as physicochemical. Here is the method:
Storage conditions: 25° C. and 60% relative air humidity for 5 hrs, 24 hrs and 7 days
The substances were weighed directly into DSC and TGA crucibles, and these crucibles were stored in a climate chamber.
50 mg of the substances were weighed into 1 ml vials, three times in each case, and these vials were then stored openly in a climate chamber.

The nature of series [5]: Hydrate formation in the presence of atmospheric moisture (description). Format: physicochemical. The settings on record: for relative air humidity at which hydrates of the crystalline form V are formed: hydrochloride.
Series [6] can be described thus: Thermodynamic stability of the crystalline form (description). Format: physicochemical. The conditions noted are these: low temperatures.
Where [7] appears, read: 25° C., 60% relative air humidity, 24 hours, second test series.
[8] abbreviates: presence of atmospheric moisture.
The mark [9] stands for this setting: Example 8.1: forms I and II together in ethyl acetate, eleven days, 25° C.
The mark [10] stands for this setting: Example 8.3: forms III and II together in ethyl acetate, three days, 23° C.
[11] abbreviates: stir-mixing in ethyl acetate, 23° C.

The structures appear in SMILES notation. “Also recorded” adds a separate entry of the source. Structures can show the parent of a compound that is named as a salt. Where two headings read alike, the source gives them in different places.

As to `CN(C)CC1CCCCC1c1cccc(O)c1` [crystalline form IV, (1R,2R)-3-[2-(dimethylamino)methyl(cyclohex-1-yl)]phenol hydrochloride], the “sequence of stability at room temperature” value (from here on “sequence of stability”) in series [1] is “I>II>III≈IV”. In series [2] (hydrochloride), the stability in air result is “stable under normal conditions in air and with exclusion of atmospheric moisture”.

With `CN(C)CC1CCCCC1c1cccc(O)c1` [crystalline form V, (1R,2R)-3-[2-(dimethylamino)methyl(cyclohex-1-yl)]phenol hydrochloride], in series [2] (hydrochloride), the stability in air entry is “stable in air under normal conditions; also recorded: stable at ambient temperature in air”.

`CN(C)C[C@@H]1CCCC[C@H]1c1cccc(O)c1.Cl` [crystalline form II, (1R,2R)-3-[2-(dimethylamino)methyl-(cyclohex-1-yl)]phenol hydrochloride]: the “water content of the sample if the relative air humidity is reduced to 0%” value in series [3] was 3.3 wt. %. Further, the “water content at 50% relative air humidity at the end of the measuring cycle” value in series [3] was 7.9%. The “recorded Raman spectrum at the end of the measuring cycle” value (“recorded Raman spectrum at the end” for short) in series [3] is “corresponds to the Raman spectrum of the crystalline form V”. Besides, the “relative air humidity above which the crystalline form absorbs water very quickly” value in series [3] is on record as > 75%. Also, the water absorbed stood at 0.04% in series [4] (25° C., 60% relative air humidity, 5 hours, first test series (DSC and TGA crucibles), listed as modification II, hydrochloride); 0.12% in series [4] (25° C., 60% relative air humidity, 5 hours, second test series (50 mg in open 1 ml vials), listed as modification II, hydrochloride); 3.28% in series [4] (25° C., 60% relative air humidity, 24 hours, first test series, listed as modification II, hydrochloride). In addition, the water content in series [4] (setting [7]) is 6.08%; in series [4] (25° C., 60% relative air humidity, one week, first test series, listed as modification II, hydrochloride), 7.03%; in series [4] (25° C., 60% relative air humidity, one week, second test series, listed as modification II, hydrochloride) it was 7.04%. Also, the water-absorption behavior result in series [4] (25° C., 60% relative air humidity, both test series) was “absorbs water more slowly in both tests than modification III”. Besides, the “proportion of water after storage” value in series [4] (5 hours of storage at a relative air humidity of 60%) was < 0.15 wt. %. Further, the hygroscopicity result in series [5] (compared with other crystalline forms) is “less hygroscopic than the compounds of the crystalline forms I, III and IV”. Moreover, the “relative air humidity at which hydrates of the crystalline form V are formed (only slowly)” value in series [5] (setting [8]) is on record as > 70%. The “relative air humidity at which hydrates of the crystalline form V are formed” value in series [5] (setting [8]) is on record as > 70%. Moreover, the “crystalline form found by Raman spectrum after stirring” value was “predominantly contained the crystalline form I and small amounts of form V” in series [1] (setting [9]); “only bands of the crystalline form II are measured” in series [1] (setting [10]). The “crystalline form found by Raman spectrum” value is recorded as “almost exclusively the crystalline form I was detected” in series [1] (23° C., after 32 days); “the first traces of the crystalline form I were detected” in series [1] (23° C., after the first three days); “only bands of the crystalline form II were measured” in series [1] (23° C., initially). The “sequence of stability” value in series [1] was “I>II>III≈IV”. Moreover, the “time at which a small proportion of the crystalline form I can be detected” value in series [1] (setting [11]) was “after three days of stir-mixing”. Besides, in series [1] (setting [11]), the “time until complete conversion into the crystalline form I” value stood at 32 days. Also, the chemical stability entry in series [2] is recorded as “good chemical stability”. In addition, the stability in air result in series [2] was “stable under normal conditions in air and with exclusion of atmospheric moisture”.

On to `CN(C)CC1CCCCC1c1cccc(O)c1` [Amorphous compounds of the formula (1), (1R,2R)-3-[2-(dimethylamino)-methyl(cyclohex-1-yl)]phenol hydrochloride], for which, in series [2] (in the presence of moisture tends to form hydrates), the “stability of the amorphous form” value was “not very stable”.

For the molecule `CN(C)C[C@@H]1CCCC[C@H]1c1cccc(O)c1.Cl` [crystalline form III, (1R,2R)-3-[2-(dimethylamino)methyl-(cyclohex-1-yl)]phenol hydrochloride], the “water content of the sample if the relative air humidity is reduced to 0%” value in series [3] is listed as 3.1 wt. %. Also, in series [3], the “water content at 50% relative air humidity at the end of the measuring cycle” value worked out at 7.8%. Besides, the “recorded Raman spectrum at the end” value in series [3] is “corresponds to the Raman spectrum of the crystalline form V”. Moreover, in series [3], the “relative air humidity above which the crystalline form absorbs water very quickly” value is reported as > 55%. Further, the water absorbed was found to be 6.70% in series [4] (25° C., 60% relative air humidity, 5 hours, first test series (DSC and TGA crucibles), listed as modification III, hydrochloride); 1.92% in series [4] (25° C., 60% relative air humidity, 5 hours, second test series (50 mg in open 1 ml vials), listed as modification III, hydrochloride); 6.28% in series [4] (25° C., 60% relative air humidity, 24 hours, first test series, listed as modification III, hydrochloride). Moreover, the water content in series [4] (setting [7]) amounted to 6.08%; in series [4] (25° C., 60% relative air humidity, one week, first test series, listed as modification III, hydrochloride) it was 6.74%; in series [4] (25° C., 60% relative air humidity, one week, second test series, listed as modification III, hydrochloride), 6.83%. The “relative air humidity at which hydrates of the crystalline form V are formed” value in series [5] (setting [8]) was > 50%. Also, the “crystalline form found by Raman spectrum after stirring” value in series [1] (Example 8.2: forms III and IV together in ethyl acetate, twelve days, 23° C.) was “only bands of the crystalline form I were measured”; in series [1] (setting [10]) it was “only bands of the crystalline form II are measured”. In addition, the “sequence of stability” value in series [1] is reported as “I>II>III≈IV”. Also, the stability in air entry in series [2] was “stable under normal conditions in air and with exclusion of atmospheric moisture”.

For `CN(C)C[C@@H]1CCCC[C@H]1c1cccc(O)c1.Cl` [crystalline form I, (1R,2R)-3[-2-(dimethylamino)methyl-(cyclohex-1-yl)]phenol hydrochloride], in series [3], the “water content of the sample if the relative air humidity is reduced to 0%” value is recorded as 3.2 wt. %, the “water content at 50% relative air humidity at the end of the measuring cycle” value came to 7.2%, the “recorded Raman spectrum at the end” value is “corresponds to the Raman spectrum of the crystalline form V” and the “relative air humidity above which the crystalline form absorbs water very quickly” value is on record as > 50%. Also, the “relative air humidity at which hydrates of the crystalline form V are formed” value in series [5] (setting [8]) is > 50%. The “temperature up to which the form is thermodynamically the most stable form” value in series [6] is “approximately 40 °C”. Moreover, the “crystalline form found by Raman spectrum after stirring” value in series [1] (setting [9]) is “predominantly contained the crystalline form I and small amounts of form V”. Besides, the “sequence of stability” value in series [1] is given as “I>II>III≈IV”.
